The text below walks through data of patent US20230203041A1, “ANTAGONISTS OF THE ADENOSINE A2A RECEPTOR” (AdoRx Therapeutics Limited, priority 2020, published 2023).

Molecules are shown by their SMILES. Where only a bound is given, the exact number is not on record here.

Test [1] concerns the target T1, human Adenosine A2a receptor (Homo sapiens, UniProt P29274).
T1 construct: expressed in transfected cells; host or cells: CHO cell membranes
Briefly: Adenosine receptor TR-FRET binding assay (CA200645 displacement), A2a. The conditions noted are these: 100 nM CA200645, CHO cell membranes, 2 hours at room temperature.
Experimental: All FRET binding experiments were conducted at room temperature in white 384-well plates, in assay binding buffer containing 1×LabMed (Cisbio, France), 100 μg/mL saponin, 1% DMSO and 0.02% pluronic acid. Binding of the fluorescently labelled Adenosine receptor antagonist XAC (CA200645, FRET acceptor) to terbium-labelled A1, A2a, A2b and A3 adenosine receptors (FRET donors) was detected by time-resolved FRET due to the close proximity of the donor and acceptor in a binding event. To investigate the ability of unlabelled test compounds to bind to Adenosine A1, A2a, A2b and A3 receptors, dose response curves were constructed that determined the ability of a range of concentrations to inhibit the binding of 30 nM CA200645 to the A2b receptor and 100 nM CA200645 to the A1, A2a, and A3 receptor.
Serial dilution (1:3 dilutions) of test compounds in neat DMSO and transfer of a 400 nL sample of test compound into the assay plate was carried out using the Mosquito (TTP Labtech, UK). The compound samples were incubated for 2 hours at room temperature with a fixed concentration of CA200645 defined for each receptor (see above) and CHO cell membranes containing the human Adenosine A1 (0.5 μg/well), A2a (0.3 μg/well), A2b (1 μg/well) or A3 (1 μg/well) receptor in 40 μL of assay buffer. Total and non-specific binding of CA200645 was determined in the absence and presence of 10 μM XAC, respectively. Following 2 hours incubation, the level of CA200645 binding was detected on a Pherastar FSX (BMG Labtech, Germany) using standard TR-FRET settings. The terbium donor was excited with three laser flashes at a wavelength of 337 nm, and donor and acceptor emission was detected at 620 nm and 665 nm wavelengths, respectively. FRET ratios were obtained by multiplying the acceptor/donor ratio value by 10,000. Specific binding was determined by subtracting the non-specific binding FRET ratio from the total binding FRET ratio. Compound IC50 curves were analysed using GraphPad Prism 7.0 (GraphPad, USA) and Ki affinity values were determined from the obtained IC50 values using the method of Cheng and Prusoff.

Test [2] concerns the target T2, human Adenosine A2b receptor (Homo sapiens, UniProt P29275).
T2 construct: expressed in transfected cells; host or cells: CHO cell membranes
T2 sequence (P29275 1-332): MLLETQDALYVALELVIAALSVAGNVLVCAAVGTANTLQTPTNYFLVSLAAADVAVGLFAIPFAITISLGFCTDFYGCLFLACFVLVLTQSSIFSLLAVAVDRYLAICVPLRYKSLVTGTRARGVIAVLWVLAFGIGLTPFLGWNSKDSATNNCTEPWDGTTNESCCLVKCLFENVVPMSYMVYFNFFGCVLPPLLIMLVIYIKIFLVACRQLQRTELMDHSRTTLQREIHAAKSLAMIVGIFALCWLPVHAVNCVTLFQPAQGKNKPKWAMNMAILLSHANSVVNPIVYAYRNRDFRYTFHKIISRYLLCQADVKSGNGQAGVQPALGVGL
As to the kind of experiment: Adenosine receptor TR-FRET binding assay (CA200645 displacement), A2b. The conditions noted are these: 30 nM CA200645, CHO cell membranes, 2 hours at room temperature.

For test [3], the target named is T3, human Adenosine A1 receptor (Homo sapiens, UniProt P30542).
T3 sequence (P30542 1-326): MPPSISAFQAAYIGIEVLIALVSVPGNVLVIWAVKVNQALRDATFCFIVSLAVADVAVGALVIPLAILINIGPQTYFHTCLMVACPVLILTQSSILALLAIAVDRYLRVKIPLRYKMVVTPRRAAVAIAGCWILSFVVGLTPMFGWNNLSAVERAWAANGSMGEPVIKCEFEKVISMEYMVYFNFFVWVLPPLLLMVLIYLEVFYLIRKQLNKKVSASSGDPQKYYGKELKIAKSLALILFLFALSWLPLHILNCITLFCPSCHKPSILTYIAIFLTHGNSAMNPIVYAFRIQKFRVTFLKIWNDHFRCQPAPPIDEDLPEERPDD
Briefly: Adenosine receptor TR-FRET binding assay (CA200645 displacement), A1.

For test [4], the target named is T4, human Adenosine A3 receptor (Homo sapiens, UniProt P0DMS8).
T4 sequence (P0DMS8 1-318): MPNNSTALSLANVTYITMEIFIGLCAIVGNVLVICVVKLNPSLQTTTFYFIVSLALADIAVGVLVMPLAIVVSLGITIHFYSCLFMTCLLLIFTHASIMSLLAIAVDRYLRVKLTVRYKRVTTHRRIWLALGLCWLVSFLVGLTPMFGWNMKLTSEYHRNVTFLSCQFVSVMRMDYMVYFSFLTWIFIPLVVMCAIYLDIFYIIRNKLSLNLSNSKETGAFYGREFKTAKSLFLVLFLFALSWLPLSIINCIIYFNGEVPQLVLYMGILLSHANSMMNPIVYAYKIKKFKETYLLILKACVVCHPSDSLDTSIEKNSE
As to the kind of experiment: Adenosine receptor TR-FRET binding assay (CA200645 displacement), A3.

T1 sequence (P29274 whole entry): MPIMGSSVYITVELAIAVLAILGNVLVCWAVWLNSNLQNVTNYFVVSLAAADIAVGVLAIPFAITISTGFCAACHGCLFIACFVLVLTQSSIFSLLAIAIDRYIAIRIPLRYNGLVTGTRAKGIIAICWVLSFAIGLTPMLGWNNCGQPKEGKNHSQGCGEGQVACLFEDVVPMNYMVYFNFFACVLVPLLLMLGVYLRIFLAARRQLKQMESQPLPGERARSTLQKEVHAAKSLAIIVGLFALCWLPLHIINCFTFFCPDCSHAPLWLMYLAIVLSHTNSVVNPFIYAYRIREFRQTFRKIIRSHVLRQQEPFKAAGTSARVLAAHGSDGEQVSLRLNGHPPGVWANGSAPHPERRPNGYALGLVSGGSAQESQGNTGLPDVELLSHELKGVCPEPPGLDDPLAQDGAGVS

With `Cc1cc(-c2c(-c3cccc(C#N)c3)nn3ccc(C(=O)NC4(C#N)CCNCC4)nc23)cc(Cl)n1` (single isomer, unassigned) [Example 7.16, 3-(2-Chloro-6-methyl-4-pyridyl)-2-(3-cyanophenyl)-N-(4-cyano-4-piperidyl)pyrazolo[1,5-a]pyrimidine-5-carboxamide], the Ki in test [1] was 17.7 nM; in test [2] it was 54 nM; in test [3], 418 nM; in test [4], above 1000 nM.
With `Cc1cc(-c2c(-c3cccc(C#N)c3)nn3ccc(C(=O)NC4(C(N)=O)CCNCC4)nc23)cc(Cl)n1` (single isomer, unassigned) [Example 7.17, N-(4-Carbamoyl-4-piperidyl)-3-(2-chloro-6-methyl-4-pyridyl)-2-(3-cyanophenyl)pyrazolo[1,5-a]pyrimidine-5-carboxamide], the Ki in test [1] was 16.4 nM; in test [2] it was 68 nM; in test [3], 279 nM; in test [4], above 1000 nM.
As to `N#Cc1cccc(-c2nn3ccc(N)nc3c2-c2ccnnc2)c1` [Example 1.2], the Ki worked out at 13.9 nM in test [1], 29 nM in test [2], 20 nM in test [3] and 646 nM in test [4].
For the compound `CCn1nccc1-c1c(-c2cccc(C#N)c2)nn2ccc(N)nc12` [Example 1.3], the Ki in test [1] is 74.8 nM; in test [2], 16 nM; in test [3], 197 nM; in test [4], above 1000 nM.
With `Cc1cc(-c2c(-c3cccc(C#N)c3)nn3ccc(N4CC5CCC(C4)N5C)nc23)cc(Cl)n1` [Example 2.2], the Ki was 0.5 nM in test [1], 45 nM in test [2], 5 nM in test [3] and above 1000 nM in test [4].
`CO[C@H]1CN(C)C[C@@H]1Nc1ccn2nc(-c3cccc(C#N)c3)c(-c3cc(C)nc(Cl)c3)c2n1` [Example 2.5]: the Ki in test [1] is 0.9 nM; in test [2], 1 nM; in test [3], 24 nM; in test [4] it was above 1000 nM.
As to `Cc1cc(-c2c(-c3cccc(C#N)c3)nn3ccc(N[C@@H]4CCOC4)nc23)cc(Cl)n1` [Example 2.6], the Ki in test [1] is 1 nM; in test [2], 12 nM; in test [3], 87 nM; in test [4] it was above 1000 nM.
Consider `Cc1cc(-c2c(-c3cccc(C#N)c3)nn3ccc(N4CCN(C)C(CO)C4)nc23)cc(Cl)n1` (stereo not shown) [Example 2.7], for which the Ki was 1.3 nM in test [1], 57 nM in test [2], 76 nM in test [3] and above 1000 nM in test [4].
With `Cc1cc(-c2c(-c3cccc(C#N)c3)nn3ccc(NCC(C)(C)C(=O)O)nc23)cc(Cl)n1` [Example 2.13], the Ki in test [1] is 71.4 nM; in test [2], 1310 nM; in test [3] it was 1390 nM; in test [4], above 1000 nM.
On to `Cc1cc(-c2c(-c3cccc(C#N)c3)nn3ccc(NCC4CNC(=O)C4)nc23)cc(Cl)n1` (stereo not shown) [Example 2.14], for which the Ki in test [1] was 1.5 nM; in test [2], 8 nM; in test [3], 29 nM; in test [4] it was above 1000 nM.
For `Cc1cc(-c2c(-c3cccc(C#N)c3)nn3ccc(NC4CN5CCC4CC5)nc23)cc(Cl)n1` (stereo not shown) [Example 2.17], in that order: 2.4 nM, 6 nM, 45 nM and above 1000 nM.
As to `Cc1cc(-c2c(-c3cccc(C#N)c3)nn3ccc(NCCN4CCOCC4)nc23)cc(Cl)n1` [Example 2.19], the Ki in test [1] was 2.8 nM; in test [2] it was 21 nM; in test [3], 32 nM; in test [4], above 1000 nM.
With `Cc1cc(-c2c(-c3cccc(C#N)c3)nn3ccc(N[C@@H]4CC[C@@H]4O)nc23)cc(Cl)n1` [Example 2.22], the Ki in test [1] was 6.2 nM; in test [2], 48 nM; in test [3] it was 109 nM; in test [4], above 1000 nM.
With `Cc1cc(-c2c(-c3cccc(C#N)c3)nn3ccc(N[C@H]4CCOC4)nc23)cc(Cl)n1` [Example 2.25], the Ki in test [1] was 7.5 nM; in test [2] it was 27 nM; in test [3], 674 nM; in test [4], above 1000 nM.
Taken in the same sequence, the figures for `Cc1cc(-c2c(-c3cccc(C#N)c3)nn3ccc(N4CCS(=N)(=O)CC4)nc23)cc(Cl)n1` [Example 2.26] were 7.7 nM, 23 nM, 366 nM and above 1000 nM.
On to `Cc1cc(-c2c(-c3cccc(C#N)c3)nn3ccc(NC4CCS(=O)(=O)CC4)nc23)cc(Cl)n1` [Example 2.27], for which the Ki in test [1] is 10.7 nM; in test [2], 43 nM; in test [3], 317 nM; in test [4] it was above 1000 nM.
On to `Cc1cc(-c2c(-c3cccc(C#N)c3)nn3ccc(NCC(N)=O)nc23)cc(Cl)n1` [Example 2.28], for which the Ki in test [1] is 11.6 nM; in test [2], 2 nM; in test [3], 81 nM; in test [4] it was above 1000 nM.
Taken in the same sequence, the figures for `Cc1cc(-c2c(-c3cccc(C#N)c3)nn3ccc(N4CCNCC4)nc23)cc(Cl)n1` [Example 2.29] were 11.8 nM, 21 nM, 124 nM and above 1000 nM.
For the compound `Cc1cc(-c2c(-c3cccc(C#N)c3)nn3ccc(NC(C)CN(C)C)nc23)cc(Cl)n1` (stereo not shown) [Example 2.30], the Ki in test [1] is 15.8 nM; in test [2] it was 55 nM; in test [3], 450 nM; in test [4] it was above 1000 nM.
As for `Cc1cc(-c2c(-c3cccc(C#N)c3)nn3ccc(O)nc23)cc(Cl)n1` [Example 2.31], the inhibition constant (Ki) in test [1] was 15.8 nM; in test [2], 70 nM; in test [3], 551 nM; in test [4], above 1000 nM.
Take `Cc1cc(-c2c(-c3cccc(C#N)c3)nn3ccc(NCc4ncc[nH]4)nc23)cc(Cl)n1` [Example 2.32]: the Ki in test [1] is 17.1 nM; in test [2] it was 102 nM; in test [3], 593 nM; in test [4], above 1000 nM.
Taken in the same sequence, the figures for `Cc1cc(-c2c(-c3cccc(C#N)c3)nn3ccc(N4CCC4C(=O)O)nc23)cc(Cl)n1` (stereo not shown) [Example 2.34] were 22.5 nM, 163 nM, 234 nM and above 1000 nM.
As to `Cc1cc(-c2c(-c3cccc(C#N)c3)nn3ccc(N4CC(C(=O)O)C4)nc23)cc(Cl)n1` [Example 2.35], the Ki in test [1] is 23.3 nM; in test [2] it was 259 nM; in test [3], 305 nM; in test [4] it was 2530 nM.
For the compound `Cc1cc(-c2c(-c3cccc(C#N)c3)nn3ccc(N4CC[C@@H](C(=O)O)C4)nc23)cc(Cl)n1` [Example 2.36], the Ki was 25.1 nM in test [1], 430 nM in test [2], 179 nM in test [3] and above 1000 nM in test [4].
`Cc1cc(-c2c(-c3cccc(C#N)c3)nn3ccc(N4CCN(S(N)(=O)=O)CC4)nc23)cc(Cl)n1` [Example 2.37]: the Ki in test [1] was 26.5 nM; in test [2], 9 nM; in test [3], 1410 nM; in test [4] it was above 1000 nM.
For the compound `Cc1cc(-c2c(-c3cccc(C#N)c3)nn3ccc(NS(N)(=O)=O)nc23)cc(Cl)n1` [Example 93, 3-(2-chloro-6-methyl-4-pyridyl)-2-(3-cyanophenyl)-5-(sulfamoylamino)pyrazolo[1,5-a]pyrimidine], the Ki in test [1] turned out to be 11.1 nM; in test [2], 1 nM; in test [3], 307 nM.
